Measurements taken from paper PMC10066365, “Nemacol is a small molecule inhibitor of C. elegans vesicular acetylcholine transporter with anthelmintic potential” (Nature Communications, 2023).
Several values for one entry are separate records, joined by “and”; a condition that tells them apart may be missing. Equal values may be shown once. Read-outs that look alike come from different tables or passages of the source.

Tests used:
Pristionchus pacificus = Pristionchus pacificus motor disruption dose-response on solid media, 1 h; conditions: for EC50: Pristionchus pacificus, 1 h, read-out: P. pacificus motor disruption EC50; for mean % any phene (coiled, jerky-Unc or paralyzed): Pristionchus pacificus young adults, mean of three biological replicates
[1] = test system: Dirofilaria immitis L3/L4; assay: Dirofilaria immitis L3/L4 motility assay (DiroImager, 72 h); conditions: Dirofilaria immitis L4
C. elegans = C. elegans motor phenotype scoring on solid media (Punc/jerky-unc, coiled, paralyzed), wild-type young adults; format: in vivo, Caenorhabditis elegans; conditions: for any phene, mean % fraction of young adults exhibiting any phenotype (coiled, jerky-Unc or paralyzed) / atypical locomotion (number of animals) / coiled (number of animals) / no phene (number of animals) / paralyzed (number of animals) / any phene (mean % fraction of young adults exhibiting any phenotype: coiled, jerky-Unc or paralyzed): one hour; for any phene, mean % fraction of young adults exhibiting any phenotype (coiled, jerky-Unc or paralyzed) / any phene (mean % fraction of young adults exhibiting any phenotype: coiled, jerky-Unc or paralyzed): mean of three biological replicates; for atypical locomotion (number of animals) / coiled (number of animals) / no phene (number of animals) / paralyzed (number of animals): young adults, 20 animals per trial, single replicate counts; for EC50: Caenorhabditis elegans, read-out: C. elegans - motor disruption EC50
[2] = test system: Dirofilaria immitis microfilariae; assay: Dirofilaria immitis microfilariae immobility assay (DiroImager, 72 h); conditions: for % effect (motility), DIROIM MF: Dirofilaria immitis microfilariae
Protocol: We conducted experiments with the Missouri isolate of Dirofilaria immitis in two labs. In the first set of experiments, shown as part of Fig. 3c, D. immitis microfilariae and larval stage 3 (L3) worms were assayed in the laboratories of Bayer Animal Health GmbH (Monheim, Germany). For microfilariae immobility assays, approximately 250 freshly purified microfilariae were cultured in single wells of a 96-well microtiter plate containing supplemented RPMI 1640 medium[68],[69]. […] Microfilariae exposed to medium substituted with 1% DMSO were used as negative controls. Motility of microfilariae was evaluated after 72 h of drug exposure using an image-based approach—DiroImager, developed by Bayer Technology Services. As described in detail in refs. [68],[69], the DiroImager is an automated high-throughput platform that allows for high-resolution optical imaging of an entire 96-well microtiter plate.

[3] = any motor phenotype after 1 h on solid media, ± 95% CI
[4] = conc 3.75, observed at one hour
[5] = conc 3.75, count of 20 animals per trial, one hour
[6] = 3.75uM, third c14 line of each analog
[7] = 15uM, second c14 line of each analog
[8] = 60uM, first c14 line of each analog

Compound | EC50 (Pristionchus pacificus) | % effect (motility), DIROIM L4 ([1]; 2 µM) | % effect (motility), DIROIM L4 ([1]; 10 µM) | % effect (motility), DIROIM L4 ([1]; 50 µM) | any phene, mean % fraction of young adults exhibiting any phenotype (coiled, jerky-Unc or paralyzed) (C. elegans; 3.75uM) | atypical locomotion (number of animals) (C. elegans; 3.75uM) | coiled (number of animals) (C. elegans; 3.75uM) | no phene (number of animals) (C. elegans; 3.75uM) | EC50 (C. elegans; [3]) | % effect (motility), DIROIM MF ([2]; 0.016 µM) | % effect (motility), DIROIM MF ([2]; 0.08 µM) | % effect (motility), DIROIM MF ([2]; 0.4 µM) | % effect (motility), DIROIM MF ([2]; 2 µM) | % effect (motility), DIROIM MF ([2]; 10 µM) | mean % any phene (coiled, jerky-Unc or paralyzed) (Pristionchus pacificus; [4]) | mean % any phene (coiled, jerky-Unc or paralyzed) (Pristionchus pacificus; conc 15, observed at one hour) | mean % any phene (coiled, jerky-Unc or paralyzed) (Pristionchus pacificus; conc 60, observed at one hour) | any phene (mean % fraction of young adults exhibiting any phenotype: coiled, jerky-Unc or paralyzed) (C. elegans; [6]) | any phene (mean % fraction of young adults exhibiting any phenotype: coiled, jerky-Unc or paralyzed) (C. elegans; [7]) | any phene (mean % fraction of young adults exhibiting any phenotype: coiled, jerky-Unc or paralyzed) (C. elegans; [8]) | also measured
O=[N+]([O-])c1ccc(CN2CCN(C3CCCC3)CC2)cc1 [Nemacol-15] | > 60 µM | 5% | 0% | 10% | 0% | 0 | 0 | 20 | > 60 µM | 0% | 0% | 0% | 0% | 0% | – | – | – | – | – | – | paralyzed (number of animals) (C. elegans; 3.75uM): 0; any phene, mean % fraction of young adults exhibiting any phenotype (coiled, jerky-Unc or paralyzed) (C. elegans; 15uM): 2.5%; atypical locomotion (number of animals) (C. elegans; 15uM): 0 and 1 and 2; coiled (number of animals) (C. elegans; 15uM): 0; no phene (number of animals) (C. elegans; 15uM): 20 and 19 and 18; paralyzed (number of animals) (C. elegans; 15uM): 0; any phene, mean % fraction of young adults exhibiting any phenotype (coiled, jerky-Unc or paralyzed) (C. elegans; 60uM): 23.3333%; atypical locomotion (number of animals) (C. elegans; 60uM): 2 and 1 and 4 and 5 and 9; coiled (number of animals) (C. elegans; 60uM): 0; no phene (number of animals) (C. elegans; 60uM): 18 and 19 and 15 and 14 and 11; paralyzed (number of animals) (C. elegans; 60uM): 0 and 3 and 2
O=C(C1CCCCC1)N1CCN(c2ccc([N+](=O)[O-])cc2)CC1 [Nemacol-16] | > 60 µM | 0% | 10% | 35% | 0.8333% | 0 and 1 | 0 | 20 and 19 | > 60 µM | 0% | 0% | 0% | 0% | 40% | 0% and 3.333% | 8.333% and 5% | 36.6667% | – | – | – | paralyzed (number of animals) (C. elegans; 3.75uM): 0; any phene, mean % fraction of young adults exhibiting any phenotype (coiled, jerky-Unc or paralyzed) (C. elegans; 15uM): 0.8333%; atypical locomotion (number of animals) (C. elegans; 15uM): 0; coiled (number of animals) (C. elegans; 15uM): 0; no phene (number of animals) (C. elegans; 15uM): 20 and 19; paralyzed (number of animals) (C. elegans; 15uM): 0 and 1; any phene, mean % fraction of young adults exhibiting any phenotype (coiled, jerky-Unc or paralyzed) (C. elegans; 60uM): 4.167%; atypical locomotion (number of animals) (C. elegans; 60uM): 4 and 1 and 0; coiled (number of animals) (C. elegans; 60uM): 0; no phene (number of animals) (C. elegans; 60uM): 16 and 19 and 20; paralyzed (number of animals) (C. elegans; 60uM): 0
O=C(C1CCCC1)N1CCN(c2ccc([N+](=O)[O-])cc2)CC1 [Nemacol-17] | > 60 µM | 0% | 0% | 15% | 0% | 0 | 0 | 20 | > 60 µM | 0% | 0% | 0% | 0% | 0% | 2.5% | 3.333% | 26.6667% | – | – | – | paralyzed (number of animals) (C. elegans; 3.75uM): 0; any phene, mean % fraction of young adults exhibiting any phenotype (coiled, jerky-Unc or paralyzed) (C. elegans; 15uM): 0%; atypical locomotion (number of animals) (C. elegans; 15uM): 0; coiled (number of animals) (C. elegans; 15uM): 0; no phene (number of animals) (C. elegans; 15uM): 20; paralyzed (number of animals) (C. elegans; 15uM): 0; any phene, mean % fraction of young adults exhibiting any phenotype (coiled, jerky-Unc or paralyzed) (C. elegans; 60uM): 9.167%; atypical locomotion (number of animals) (C. elegans; 60uM): 0 and 2 and 3 and 6; coiled (number of animals) (C. elegans; 60uM): 0; no phene (number of animals) (C. elegans; 60uM): 20 and 18 and 17 and 14; paralyzed (number of animals) (C. elegans; 60uM): 0
O=C(C1CCC1)N1CCN(c2ccc(F)cc2)CC1 [Nemacol-18] | > 60 µM | 5% | 0% | 10% | – | – | – | – | – | 0% | 0% | 0% | 0% | 0% | 3.333% | 3.333% | 15.8333% | 0% | 10% | 27.5% | rep 1 atypical locomotion (Pristionchus pacificus; [5]): 0; rep 1 coiled (Pristionchus pacificus; [5]): 0; rep 1 no phene (Pristionchus pacificus; [5]): 20; rep 1 paralyzed (Pristionchus pacificus; [5]): 0; rep 2 atypical locomotion (Pristionchus pacificus; [5]): 0; rep 2 coiled (Pristionchus pacificus; [5]): 0; rep 2 no phene (Pristionchus pacificus; [5]): 20; rep 2 paralyzed (Pristionchus pacificus; [5]): 0; rep 3 atypical locomotion (Pristionchus pacificus; [5]): 0; rep 3 coiled (Pristionchus pacificus; [5]): 0; rep 3 no phene (Pristionchus pacificus; [5]): 19; rep 3 paralyzed (Pristionchus pacificus; [5]): 1; EC50 (C. elegans; 1 h): > 60 µM
O=[N+]([O-])c1ccc(N2CCN(C3CCCCCCC3)CC2)cc1 [Nemacol-21] | 60 ± 10.2 µM | – | 0% | 0% | – | – | – | – | 19.6 ± 37.4 µM | 0% | 0% | 0% | 0% | 0% | 0.8333% | 6.667% | 50% | 3.333% | 17.5% | – | –
Cc1cc([N+](=O)[O-])ccc1N1CCN(CC2CCCCC2)CC1 [Nemacol-23, 1-(cyclohexylmethyl)−4-(2-methyl-4-nitrophenyl)piperazine] | > 60 µM | 0% | 5% | 100% | – | – | – | – | 32.1 ± 48.2 µM | 0% | 0% | 0% | 0% | 0% | 1.667% | 0.8333% | 7.5% | 15.8333% | 33.3333% | 63.3333% | –
Cc1cc(N2CCN(CC3CCCCC3)CC2)ccc1[N+](=O)[O-] [Nemacol-25, 1-(cyclohexylmethyl)−4-(3-methyl-4-nitrophenyl)piperazine] | > 60 µM | 0% | 11% | 100% | – | – | – | – | 41 ± 26.8 µM | 0% | 0% | 0% | 40% | 60% | 0.8333% | 6.667% | 29.1667% | 2.5% | 20.8333% | 62.5% | EC50 ([2]; Dirofilaria immitis, 72 h, read-out: Dirofilaria immitis filariae EC50): 5.11 µM
N#Cc1ccc(N2CCN(CC3CCCC3)CC2)cc1 [Nemacol-27, 4-(4-(cyclopentylmethyl)piperazin-1-yl)benzonitrile] | 16.4 ± 3.6 µM | 0% | 10% | 15% | – | – | – | – | 21.9 ± 8.2 µM | 0% | 0% | 0% | 0% | 0% | 9.167% and 5% | 46.6667% and 3.333% | 88.3333% | 0.8333% | 29.1667% | 91.3333% | –
